What all share (assay type): cell-based
In experiment [1] the test system is HL-60. The experiment is described as follows: NCI60 screen cytotoxicity. Particulars: Homo sapiens, Leukemia, read-out: Compound B1 EC50.
Experiment [2] deals with TK-10. The experiment is described as follows: Cell viability panel, CyQUANT Direct. The note with it: Homo sapiens, Renal cancer, 48 hours, read-out: Compound EC50. Here is the method:
(§1) Cell viability panel studies. Cells were diluted in the corresponding ATCC recommended medium and dispensed in a 384-well plate, depending on the cell line used, at a density of 200-6400 cells per well. For each used cell line, the optimal cell density was used. Compound was serially diluted and 8 concentration (0.04-32 μM) were added to the cells for 72 h exposure. At t=end, of ATPlite 1Step™ (PerkinElmer) were used to calculate cell viability. Cell lines marked with asterisk were seeded 24 h prior to treatment in 96-well plates at the density range of 5,000-40,000 cells/well, according to duplication rate, in RPMI 1640 medium containing 10% fetal bovine serum and 2 mM L-glutamine. Compounds were diluted from 10 mM DMSO stock and treatment was applied at the range of 0.04-1 μM. Following incubation at 37° C. for 48 hours with increasing concentrations of the compounds, viability was determined with CyQUANT® Direct Assay Kit (Invitrogen). Output intensities were normalized to values after treatment with DMSO alone, and EC50 values were calculated using the absorbance measurements [time zero, (Tz), growth control, (C), plus the test growth at the four drug concentration levels (Ti)] as follows: [(Ti−Tz)/(C−Tz)]×100 for concentrations for which Ti>/=Tz; [(Ti−Tz)/Tz]×100 for concentrations for which Ti−<Tz.

In experiment [3] the test system is OVCAR-4. The experiment in a line: Cell viability panel, CyQUANT Direct. The note with it: Homo sapiens, Ovarian Cancer, 48 hours, read-out: Compound EC50. The method, then:
as §1

In experiment [4] the test system is MDA-MB-435. The experiment is described as follows: Cell viability panel, CyQUANT Direct. Particulars: Homo sapiens, Melanoma, 48 hours, read-out: Compound EC50. Here is the method:
as §1

For experiment [5], the system named is UO-31. The experiment in a line: Cell viability panel, CyQUANT Direct. Particulars: Homo sapiens, Renal cancer, 48 hours, read-out: Compound EC50. Here is the method: as §1
The test system of experiment [6] is HCC-2998. The experiment is described as follows: Cell viability panel, CyQUANT Direct. The note with it: Homo sapiens, Colon cancer, 48 hours, read-out: Compound EC50. Here is the method:
as §1

The test system of experiment [7] is OVCAR-8. The experiment in a line: Cell viability panel, CyQUANT Direct. Particulars: Homo sapiens, Ovarian Cancer, 48 hours, read-out: Compound EC50. Here is the method: as §1
The test system of experiment [8] is NCI-H322M. The experiment is described as follows: Cell viability panel, CyQUANT Direct. The note with it: Homo sapiens, Lung cancer, 48 hours, read-out: Compound EC50. The method, then: as §1
The test system of experiment [9] is SF-539. The experiment is described as follows: Cell viability panel, CyQUANT Direct. The note with it: Homo sapiens, CNS, 48 hours, read-out: Compound EC50. Here is the method:
as §1

Experiment [10] relates to SNB-19. The experiment in a line: Cell viability panel, CyQUANT Direct. Particulars: Homo sapiens, CNS, 48 hours, read-out: Compound EC50. Here is the method: as §1
For experiment [11], the system named is UACC-62. The experiment is described as follows: Cell viability panel, CyQUANT Direct. Particulars: Homo sapiens, Melanoma, 48 hours, read-out: Compound EC50. Here is the method: as §1
The subject of experiment [12] is NCI-H522. The experiment in a line: Cell viability panel, CyQUANT Direct. Particulars: Homo sapiens, Lung Cancer, 48 hours, read-out: Compound EC50. The method, then:
as §1

Experiment [13] has as its system SK-MEL-2. The experiment is described as follows: Cell viability panel, CyQUANT Direct. The note with it: Homo sapiens, Melanoma, 48 hours, read-out: Compound EC50. The method, then:
as §1

Experiment [14] relates to SK-MEL-28. The experiment is described as follows: Cell viability panel, CyQUANT Direct. Particulars: Homo sapiens, Melanoma, 48 hours, read-out: Compound EC50. Here is the method: as §1
Experiment [15] has as its system IGR-OV1. The experiment in a line: Cell viability panel, CyQUANT Direct. The note with it: Homo sapiens, IGROV-1, Ovarian cancer, 48 hours, read-out: Compound EC50. Here is the method: as §1
The subject of experiment [16] is U251. The experiment is described as follows: Cell viability panel, CyQUANT Direct. Particulars: Homo sapiens, U-251, CNS, 48 hours, read-out: Compound EC50. The method, then:
as §1

Experiment [17] deals with KM-12. The experiment in a line: Cell viability panel, CyQUANT Direct. Particulars: Homo sapiens, KM12, Colon cancer, 48 hours, read-out: Compound EC50. The method, then:
as §1

Experiment [18] relates to SF-268. The experiment is described as follows: Cell viability panel, CyQUANT Direct. Particulars: Homo sapiens, CNS, 48 hours, read-out: Compound EC50. The method, then: as §1
In experiment [19] the test system is M14. The experiment is described as follows: Cell viability panel, CyQUANT Direct. The note with it: Homo sapiens, Melanoma, 48 hours, read-out: Compound EC50. The method, then:
as §1

Experiment [20] concerns HOP-92. The experiment in a line: Cell viability panel, CyQUANT Direct. Particulars: Homo sapiens, Lung cancer, 48 hours, read-out: Compound EC50. The method, then: as §1
In experiment [21] the test system is HT-29. The experiment in a line: Cell viability panel, CyQUANT Direct. The note with it: Homo sapiens, Colon cancer, 48 hours, read-out: Compound EC50. The method, then: as §1
For experiment [22], the system named is LOX IMVI. The experiment in a line: Cell viability panel, CyQUANT Direct. Particulars: Homo sapiens, Melanoma, 48 hours, read-out: Compound EC50. Here is the method:
as §1

In experiment [23] the test system is EKVX. The experiment in a line: Cell viability panel, CyQUANT Direct. The note with it: Homo sapiens, Lung cancer, 48 hours, read-out: Compound EC50. Here is the method:
as §1

The test system of experiment [24] is SN12C. The experiment in a line: Cell viability panel, CyQUANT Direct. The note with it: Homo sapiens, Renal cancer, 48 hours, read-out: Compound EC50. The method, then:
as §1

In experiment [25] the test system is UACC-257. The experiment is described as follows: Cell viability panel, CyQUANT Direct. Particulars: Homo sapiens, Melanoma, 48 hours, read-out: Compound EC50. Here is the method: as §1
Experiment [26] has as its system RXF-393. The experiment in a line: Cell viability panel, CyQUANT Direct. Particulars: Homo sapiens, Renal cancer, 48 hours, read-out: Compound EC50. Here is the method:
as §1

Experiment [27] has as its system SK-OV-3. The experiment in a line: Cell viability panel, CyQUANT Direct. The note with it: Homo sapiens, Ovarian, 48 hours, read-out: Compound EC50. The method, then: as §1
In experiment [28] the test system is MDA-MB-231. The experiment in a line: Cell viability panel, CyQUANT Direct. Particulars: Homo sapiens, Breast Cancer, 48 hours, read-out: Compound EC50. The method, then:
as §1

Experiment [29] relates to SF-295. The experiment is described as follows: Cell viability panel, CyQUANT Direct. The note with it: Homo sapiens, CNS, 48 hours, read-out: Compound EC50. Here is the method: as §1
Experiment [30] deals with CAKI-1. The experiment is described as follows: Cell viability panel, CyQUANT Direct. The note with it: Homo sapiens, Renal cancer, 48 hours, read-out: Compound EC50. The method, then: as §1
Experiment [31] relates to MALME-3M. The experiment is described as follows: Cell viability panel, CyQUANT Direct. The note with it: Homo sapiens, Melanoma, 48 hours, read-out: Compound EC50. Here is the method: as §1
The test system of experiment [32] is SK-MEL-5. The experiment is described as follows: Cell viability panel, CyQUANT Direct. Particulars: Homo sapiens, Melanoma, 48 hours, read-out: Compound EC50. The method, then: as §1
The test system of experiment [33] is MDA-MB-468. The experiment is described as follows: Cell viability panel, CyQUANT Direct. Particulars: Homo sapiens, Breast cancer, 48 hours, read-out: Compound EC50. The method, then: as §1
The test system of experiment [34] is SNB-75. The experiment is described as follows: Cell viability panel, CyQUANT Direct. The note with it: Homo sapiens, CNS, 48 hours, read-out: Compound EC50. Here is the method:
as §1

Experiment [35] relates to NCI-H23. The experiment is described as follows: Cell viability panel, CyQUANT Direct. The note with it: Homo sapiens, Lung cancer, 48 hours, read-out: Compound EC50. The method, then:
as §1

Experiment [36] has as its system OVCAR-5. The experiment in a line: Cell viability panel, CyQUANT Direct. Particulars: Homo sapiens, Ovarian Cancer, 48 hours, read-out: Compound EC50. The method, then:
as §1

The subject of experiment [37] is HOP-62. The experiment is described as follows: Cell viability panel, CyQUANT Direct. The note with it: Homo sapiens, Lung cancer, 48 hours, read-out: Compound EC50. The method, then:
as §1

This is an account of results in patent publication US20200399262A1, “COMPOUNDS FOR INHIBITING PROTEIN DEGRADATION AND METHODS OF USE THEREOF IN THE TREATMENT OF CANCER” (PI Therapeutics Ltd, priority 2018, published 2020).

The EC50 is the midpoint of the concentration-response curve.

With `CN(C)CC(=O)NCC(=O)N1C/C(=C\c2ccc(C#N)cc2)C(=O)/C(=C/c2ccc(C#N)cc2)C1` [Compound B1], the concentration giving a half-maximal response (EC50) in [1] was below 300 nM.

`CN(C)CCCS(=O)(=O)N1C/C(=C\c2ccc(C#N)cc2)C(=O)/C(=C/c2ccc(C#N)cc2)C1` [Compound AA]: the EC50 in experiment [2] was 300 to 1000 nM; in [3] it was 300 to 1000 nM; in experiment [4], below 300 nM; in experiment [5], 300 to 1000 nM; in experiment [6], 300 to 1000 nM; in experiment [7] it was below 300 nM. Further, the EC50 in experiment [8] is 300 to 1000 nM; in experiment [9] it was below 300 nM; in experiment [10] it was below 300 nM; in experiment [11] it was below 300 nM; in experiment [12], below 300 nM; in [13], below 300 nM. Further, the EC50 in [14], in experiment [15], in [16], in [17], in experiment [18] and in experiment [19] was below 300 nM each time. In addition, the half-maximal effective concentration (EC50) in experiment [20] was 300 to 1000 nM; in experiment [21], 300 to 1000 nM; in [22], below 300 nM; in [23], 300 to 1000 nM; in [24] it was below 300 nM; in [25] it was 300 to 1000 nM. Also, the EC50 in experiment [26] was at least 1000 nM; in experiment [27], below 300 nM; in [28], below 300 nM; in [29], below 300 nM; in experiment [30] it was at least 1000 nM; in experiment [31], below 300 nM. For the same molecule, the EC50 is below 300 nM in experiment [32]; below 300 nM in experiment [33]; 300 to 1000 nM in experiment [34]; 300 to 1000 nM in experiment [35]; below 300 nM in [36]; 300 to 1000 nM in experiment [37].
